The values below come from ChEMBL document CHEMBL5058564, “EUbOPEN Chemogenomics Library 2 (Incucyte)” (2022).

*1 amine or outer side, *2 acyl side, *3 side chain or, on linkers, in order; H or OH if unused. Where a SMILES comes first, the peptide text is derived from it. Bridges are numbered along the chain shown (N, C = ends). X1 = O=C(CCC[*:2])[*:1]

What all share (assay type): toxicity, cell-based
In one series the test system is U2OS. The series is described as follows: Incucyte cell viability with U2OS. The conditions noted are these: human, 10 µM, compound concentration 10 uM.
In a further series the test system is HEK-293T. Nature of the series: Incucyte cell viability with HEK293T. The conditions noted are these: human, 10 µM, compound concentration 10 uM.
Another series concerns Fibroblast. Nature of the series: Incucyte cell viability with human fibroblast. The conditions noted are these: 10 µM, compound concentration 10 uM.
Setting [1] is: 0 h, replicate number 1, timepoint 0 hours.
[2] abbreviates: 0 h, replicate number 2, timepoint 0 hours.
[3] abbreviates: 18 h, replicate number 1, timepoint 18 hours.
The mark [4] stands for this setting: 18 h, replicate number 2, timepoint 18 hours.
Where [5] appears, read: 24 h, replicate number 1, timepoint 24 hours.
Where [6] appears, read: 24 h, replicate number 2, timepoint 24 hours.
Setting [7] is: 6 h, replicate number 1, timepoint 6 hours.
The mark [8] stands for this setting: 6 h, replicate number 2, timepoint 6 hours.
The mark [9] stands for this setting: 12 h, replicate number 1, timepoint 12 hours.
[10] abbreviates: 12 h, replicate number 2, timepoint 12 hours.
Further: unitless GR value; below 1 slowed growth and below 0 cell loss.

Consider `CN[C@@H]1Cc2cccc3[nH]c(=O)n(c23)C1.O=C(O)/C=C\C(=O)O`, for which the “Growth Rate” value is 0.11 in the series on U2OS (setting [1]); -1 with U2OS (setting [2]); 0.71 with U2OS (setting [3]); 0.85 with U2OS (setting [4]); 0.89 with U2OS (setting [5]); 0.98 with U2OS (setting [6]). The “Growth Rate” value with HEK-293T (setting [7]) is recorded as 0.74; with HEK-293T (setting [8]), 0.88; with HEK-293T (setting [3]) it was 0.9; in the series on HEK-293T (setting [4]), 0.98; in the series with HEK-293T (setting [5]), 0.79; with Fibroblast (setting [7]), -0.17. Moreover, the “Growth Rate” value in the series with Fibroblast (setting [8]) came to 0.8; with Fibroblast (setting [9]), 0.68; in the series with Fibroblast (setting [3]), 0.81; with Fibroblast (setting [5]) it was 0.5.
Consider `CN(C)CCn1cc(S(=O)(=O)c2cccc(F)c2)c2cccnc21.Cl.Cl`, for which the “Growth Rate” value with U2OS (setting [7]) worked out at 0.56; in the series with U2OS (setting [8]) it was 0.76; in the series on U2OS (setting [9]) it was 0.39; with U2OS (setting [10]) it was 0.98; with U2OS (setting [3]), 0.8; with U2OS (setting [5]), 0.86. Moreover, the “Growth Rate” value is given as 0.41 in the series with HEK-293T (setting [1]); 0.35 in the series on HEK-293T (setting [2]); 0.9 with HEK-293T (setting [8]); -0.06 in the series on Fibroblast (setting [1]); 0.07 in the series on Fibroblast (setting [2]); -0.17 with Fibroblast (setting [7]). Also, the “Growth Rate” value with Fibroblast (setting [8]) worked out at 0.86; with Fibroblast (setting [9]) it was 0.56; with Fibroblast (setting [10]), 0.68; in the series with Fibroblast (setting [3]), 0.65; with Fibroblast (setting [4]), 0.64; in the series on Fibroblast (setting [5]) it was 0.75. In addition, the “Growth Rate” value in the series on Fibroblast (setting [6]) stood at 0.57.
For `CC1(C)[C@H]2C[C@H](C/C=C\CCCC(=O)O)[C@@H](NC(=O)c3csc4ccc(O)cc34)[C@@H]1C2`, the “Growth Rate” value is listed as -0.79 in the series on U2OS (setting [2]); 0.23 with U2OS (setting [7]); 0.91 in the series with U2OS (setting [8]); 0.14 in the series on U2OS (setting [9]); 0.37 in the series on U2OS (setting [3]); 0.81 in the series on U2OS (setting [4]). In addition, the “Growth Rate” value in the series on U2OS (setting [5]) stood at 0.66; in the series with U2OS (setting [6]) it was 0.86; in the series with HEK-293T (setting [2]) it was 0.67; in the series with HEK-293T (setting [7]) it was 0.73; in the series with HEK-293T (setting [3]) it was 0.94; with HEK-293T (setting [5]), 0.85. The “Growth Rate” value was determined as 0.09 in the series on Fibroblast (setting [7]), 0.51 in the series on Fibroblast (setting [9]), 0.75 in the series with Fibroblast (setting [10]) and 0.69 in the series on Fibroblast (setting [3]).
On to `COc1ccc(S(=O)(=O)N2C(=O)[C@@](c3ccccc3OC)(N3C[C@H](O)C[C@H]3C(=O)N(C)C)c3cc(Cl)ccc32)c(OC)c1`, for which the “Growth Rate” value is 0.6 in the series on U2OS (setting [1]); -1 in the series with U2OS (setting [2]); 0.33 with U2OS (setting [7]); 0.82 with U2OS (setting [3]); 0.98 with U2OS (setting [4]); 0.9 in the series with U2OS (setting [6]). The “Growth Rate” value in the series with HEK-293T (setting [8]) is 0.78; with Fibroblast (setting [7]) it was 0.08; with Fibroblast (setting [8]), -0.04; with Fibroblast (setting [9]) it was 0.09; with Fibroblast (setting [10]) it was 0.24; with Fibroblast (setting [3]), 0.36. The “Growth Rate” value is reported as 0.45 in the series with Fibroblast (setting [4]), 0.43 in the series on Fibroblast (setting [5]) and 0.6 in the series on Fibroblast (setting [6]).
Regarding `O=C(O)c1ccccc1S(=O)(=O)NCCCCN1C(=O)c2cccc3cccc(c23)C1=O`, the “Growth Rate” value with U2OS (setting [1]) was 0.34; in the series with U2OS (setting [2]) it was -0.33; in the series on U2OS (setting [7]), 0.57; in the series with U2OS (setting [8]) it was 0.12; with U2OS (setting [9]), 0.82; with U2OS (setting [10]) it was 0.64. Moreover, the “Growth Rate” value in the series with U2OS (setting [3]) was 0.78; with U2OS (setting [4]), 0.75; in the series with U2OS (setting [5]), 0.67; in the series on U2OS (setting [6]) it was 0.75; with HEK-293T (setting [1]), 0.54; in the series on HEK-293T (setting [2]) it was 0.31. In addition, the “Growth Rate” value with HEK-293T (setting [9]) is 0.9; in the series on HEK-293T (setting [10]), 0.98; in the series with HEK-293T (setting [3]), 0.82; in the series on HEK-293T (setting [4]) it was 0.89; with HEK-293T (setting [5]), 0.91; in the series on Fibroblast (setting [1]) it was 0.28. Moreover, the “Growth Rate” value was found to be 0.58 with Fibroblast (setting [2]), 0.71 with Fibroblast (setting [8]), 0.94 in the series with Fibroblast (setting [10]) and 0.79 with Fibroblast (setting [3]).
Consider `CCCCC/C=C\C/C=C\C/C=C\C/C=C\CCCC(=O)NCC(=O)O` [ARACHIDONOYL GLYCINE], for which the “Growth Rate” value is recorded as -0.29 in the series on U2OS (setting [1]); 0.28 in the series on U2OS (setting [2]); 0.64 in the series on U2OS (setting [7]); 0.64 in the series with U2OS (setting [9]); 0.9 in the series on U2OS (setting [10]); 0.72 in the series with U2OS (setting [3]). For the same compound, the “Growth Rate” value in the series on U2OS (setting [4]) is reported as 0.97; in the series on U2OS (setting [5]), 0.76; in the series with HEK-293T (setting [1]), 0.53; with HEK-293T (setting [2]) it was 0.42; in the series on HEK-293T (setting [9]), 0.8; in the series with HEK-293T (setting [3]) it was 0.64. For the same compound, the “Growth Rate” value with HEK-293T (setting [4]) is 0.93; in the series with HEK-293T (setting [5]), 0.52; in the series with HEK-293T (setting [6]), 0.83; in the series on Fibroblast (setting [1]), 0.41; in the series with Fibroblast (setting [2]) it was 0.25; with Fibroblast (setting [7]), 0.18. For the same compound, the “Growth Rate” value in the series on Fibroblast (setting [8]) amounted to 0.75; in the series with Fibroblast (setting [9]), 0.75; with Fibroblast (setting [10]), 0.99; with Fibroblast (setting [3]), 0.78; in the series on Fibroblast (setting [4]), 0.93; in the series with Fibroblast (setting [5]), 0.8. For the same compound, in the series with Fibroblast (setting [6]), the “Growth Rate” value turned out to be 0.79.
For the compound `CC[C@H](C)[C@@H]1NC(=O)[C@H](Cc2ccc(OC)cc2)NC(=O)CCCSC[C@@H](C(=O)N2CCC[C@H]2C(=O)N[C@@H](CC(C)C)C(=O)NCC(N)=O)NC(=O)[C@H](CC(N)=O)NC(=O)[C@H](CCC(N)=O)NC1=O` [CARBETOCIN] (Y(Me)IQNCPLG-NH2; linker N-5 via X1), the “Growth Rate” value was 0.31 in the series with HEK-293T (setting [1]); -0.11 with HEK-293T (setting [2]); 1 in the series with HEK-293T (setting [7]); 0.63 in the series with HEK-293T (setting [9]); 0.76 with HEK-293T (setting [3]); 1 in the series with HEK-293T (setting [4]). In addition, the “Growth Rate” value came to 0.89 in the series with HEK-293T (setting [5]); 0.92 with HEK-293T (setting [6]); 0.35 in the series with Fibroblast (setting [1]); 0.98 with Fibroblast (setting [2]); 0.85 in the series with Fibroblast (setting [3]); 0.54 in the series with Fibroblast (setting [5]).
As for `CN1CCN2c3ccccc3Cc3ccccc3C2C1.Cl` (stereo unspecified) [MIANSERIN HYDROCHLORIDE], the “Growth Rate” value is -1 in the series on U2OS (setting [2]); 0.85 with U2OS (setting [8]); 0.97 in the series with U2OS (setting [10]); 0.96 in the series with U2OS (setting [3]); 0.94 with U2OS (setting [4]); 0.97 in the series on U2OS (setting [6]). Also, in the series with HEK-293T (setting [2]), the “Growth Rate” value came out at 0.8.
As for `CN1CCN2c3ncccc3Cc3ccccc3C2C1` (stereo unspecified) [MIRTAZAPINE], the “Growth Rate” value in the series with U2OS (setting [2]) is reported as -0.76; with U2OS (setting [9]), 0.81; with U2OS (setting [10]), 0.97; with U2OS (setting [4]), 0.79; in the series on U2OS (setting [5]), 0.96; in the series on U2OS (setting [6]), 0.85. Besides, the “Growth Rate” value in the series on HEK-293T (setting [8]) came out at 0.53.
For the compound `CCCOc1ccc2[nH]cc(C3=CCNCC3)c2n1.Cl`, the “Growth Rate” value in the series with U2OS (setting [7]) is on record as 0.81; in the series with U2OS (setting [9]) it was 0.67; in the series with U2OS (setting [10]) it was 0.93; in the series on U2OS (setting [3]) it was 0.82; with U2OS (setting [4]) it was 0.95; in the series on U2OS (setting [5]), 0.92. The “Growth Rate” value with U2OS (setting [6]) was 0.93; in the series with HEK-293T (setting [8]) it was 0.51; in the series on HEK-293T (setting [10]), 0.75; in the series with HEK-293T (setting [4]), 0.95.
Turning to `C[C@H](NC(=O)c1c(C(F)F)nn(C)c1Oc1cccc(C(F)(F)F)c1)c1ccc(C(=O)O)cc1` [PALUPIPRANT], the “Growth Rate” value with U2OS (setting [1]) is recorded as -0.16; with U2OS (setting [2]) it was -1; in the series with U2OS (setting [3]) it was 0.93; with Fibroblast (setting [1]) it was 0.19; in the series with Fibroblast (setting [2]) it was 0.08; in the series with Fibroblast (setting [3]) it was 0.96.
As for `CCCn1c(=O)c2[nH]c(-c3ccc(OCC(=O)Nc4ccc(C#N)cc4)cc3)nc2n(CCC)c1=O`, the “Growth Rate” value in the series on U2OS (setting [1]) is 0.37; with U2OS (setting [2]) it was -1; in the series on HEK-293T (setting [2]) it was 0.64; with HEK-293T (setting [7]), 0.24; with HEK-293T (setting [9]), 0.85; in the series on HEK-293T (setting [3]), 0.94.
